# In patent publication US20050118596A1, “Method for screening for compounds having hdac inhibitory activity” (priority 2002, published 2005):
# Where two headings read alike, the source gives them in different places. Where a SMILES comes first, the peptide text is derived from it. [ ]: non-standard residue; d: D form. ξ: configuration not given here. Aoe(9ξ) = N[C@@H](CCCCCC(=O)C1CO1)C(=O)O; dPip = O=C(O)[C@H]1CCCCN1
# Tests used:
# [1] = system: Fra-1 mRNA in A549 cells; assay: Fra-1 mRNA levels by Q-PCR in A549 cells after HDAC inhibitor treatment; format: cell-based, Human; details: for mrna remaining at 0.1 µM: Homo sapiens, 100 nM, n = 4 (Example 3), read-out: % Fra1 mRNA remaining; for mrna remaining at 0.1 µM / % Fra1 mRNA remaining: A549 cells
# Experimental: Human A549 non-small lung carcinoma cells (ATCC CCL-185, Manassas, Va.) are cultured in DMEM medium (Life Technologies, Gaithersburg, Md.) containing 4500 mg/l glucose, 10% fetal bovine serum (FBS, Life Technologies) plus 50 μg/ml Gentamycin (Life Technologies) in a humidified incubator with a 5% CO2 atmosphere at 37° C. Prior to Tpx A treatment, A549 cells are plated at a density of 2×10^5 cells/well in 6 well plates (Costar, Corning, N.Y.) and grown up for 24 h. Tpx A (1 mM stock solution in DMSO) is added to the cells at concentrations from 1 to 1000 nM and cells are incubated for either 24 or 48 hours h at 37° C.
# (§1) Total RNA from Tpx A treated as well as untreated H1299 and A549 cells is prepared using the RNeasy Mini kit (Qiagen, Hilden, Germany) according to the manufacturers instructions. The RNA is recovered in 50 μl DEPC-treated H2O (RNase free) and the RNA concentration is determined by measuring the OD260 in a SpectraMax photometer (Molecular Devices, Sunnyvale, Calif.).
# (§2) Sequences for primers (BIG, Freiburg, Germany) and TaqMan probes for Q-PCR containing 5′ FAM fluorescent reporter and 3′ TAMRA quencher dyes (Eurogentec, Seraing, Belgium) are selected using the Primer Express Software (Applied Biosystems, Foster City, Calif.) at default settings; Primer TM Requirements: Min Tm: 58° C., Max Tm:60° C., Optimal Tm: 59° C., Maximal Tm difference: 2° C. Primer GC Content Requirements: Min %GC 30, Max %GC 80, 3′ clamp of 0 residues. Primer Length Requirements: Min length: 9, Max length: 40, optimal length: 20. Amplicon Requirements: Min Tm: 0° C., Max Tm: 85° C., Min length: 50, Max length: 150. TaqMan Probe Criteria: TaqMan probe Tm must be 10° C. greater than PCR primer Tm.
# (§3) Q-PCR is performed using the TaqMan PCR Core reagent kit (Applied Biosystems Foster City, Calif.) in a ABI Prism 7700 sequence detector (Applied Biosystems) according to the manufacturers instructions. 50 ng total RNA in 12 μl DEPC-H2O are prepared in MicroAmp optical 96 well reaction plates (Applied Biosystems) together with 13 μl TaqMan PCR reagent mix as provided in Table 1.
# (§4) Settings for reverse transcription of the target RNA and detection by Q-PCR are 50° C. for 2 min., 95° C. for 10 min. followed by 50 cycles of 95° C. for 15 sec and 60° C. for 1 min. Relative measurement of the amplified product is performed using the comparative CT method as described in the manufacturer's manual (Applied Biosystems, ABI Prism 7700 sequence detection system, User Bulletin #2).
# Human A549 non-small cell lung carcinoma cells (ATCC, Manassas, Va.) (ATCC #CCL-185) are cultured in DMEM medium (Life Technologies, Gaithersburg, Md.) containing 10% fetal bovine serum (FBS, Life Technologies) plus 50 μg/ml Gentamycin (Life Technologies) in a humidified incubator with a 5% CO2 atmosphere at 37° C. Prior to Compound B treatment, A549 cells are plated at a density of 5×10^4 cells/well in 24 well plates (Costar, Corning, N.Y.) and grown up for 24 h. Compound B (10 mM stock solution in DMSO) is diluted to a final concentration of 100 nM in tissue culture medium and added to the cells. As control an equivalent amount of DMSO is added to control cultures without Compound B. The cells are incubated at 37° C. for either 16, 24 or 48 hrs. All cell cultures are set up in duplicate. Total RNA from the compound—treated as well as untreated A549 cells is prepared using the RNeasy Mini kit (Qiagen, Hilden, Germany) according to the manufacturer's instructions. The RNA is recovered in 50 μl DEPC-treated H2O (RNase free) and the RNA concentration is determined by measuring the OD260 in a SpectraMax photometer (Molecular Devices, Sunnyvale, Calif.). The amount of RNA is adjusted to 5 ng/microliter.
# DNA sequence of the Fra-1 primers and probes are as described above. Settings for reverse transcription of the target RNA and detection by Q-PCR are 50° C. for 2 min., 95° C. for 10 min. followed by 50 cycles of 95° C. for 15 sec and 60° C. for 1 min. […]
# [2] = system: histone deacetylase activity purified from H1299 cells; assay: Histone deacetylase activity, release of tritium labeled acetyl groups from acetylated Histone H4 peptide; format: biochemical, Human; details: HDAC activity purified from H1299 cells, 2 hours at 37° C.
# Experimental: Using conventional methodologies, the actual enzyme activity of […] was examined in the presence of Trapoxin A, Compound A or Compound B. Briefly, 30,000 cpms of a tritium labeled acetylated Histone H4 peptide is incubated with histone deacetylase activity purified from H1299 cells by ion exchange chromatography in HDAC assay buffer (10 mM Tris-Cl, pH 8.0, 10 mM NaCl, 10% glycerol) in the presence or absence of drug. The mixture is allowed to sit for 2 hours at 37° C. and radio-labeled acetyl groups released by histone deacetylase activity extracted into ethyl acetate and counted on a scintillation counter. The IC50 represents the concentration of drug that inhibits 50% of the histone deacetylase activity obtained in the absence of drug.
# [3] = target: histone deacetylase activity purified from H1299 cells by ion exchange chromatography (human); assay: cell-based or functional assay
# [4] = system: Fra-1 mRNA in HCT116 cells; assay: Fra-1 mRNA levels by Q-PCR in HCT116 cells after HDAC inhibitor treatment; format: cell-based; details: for mrna remaining at 0.1 µM: Homo sapiens, HCT-116, 100 nM drug, read-out: % Fra1 mRNA remaining; for % Fra1 mRNA remaining: 100 nM drug
# Experimental: (§5) H1299 cells and HCT116 cells (ATCC, Manassas, Va.) are cultured and exposed to Tpx A or Compound A and levels of Fra-1 message assayed. In these experiments, H1299 cells are cultured as described in Example 1. HCT116 cells are cultured in RPMI 1640 medium containing 10% fetal calf serum at 37° C. and 5% CO2. 100 nM trapoxin, 100 nM Compound A or 100 nM DMSO are added to the cells at 60% confluence and grown up for either 6 or 24 hours. Using methodologies as described in Example 1 above, the RNA from cultures treated with Tpx A, Compound A or DMSO as a control is obtained and analysed by Q-PCR for Fra-1 levels; in this case, 8.7 ng total RNA in 12 μl DEPC-H2O are prepared in MicroAmp optical 96 well reaction plates (Applied Biosystems) together with 13 μl TaqMan PCR reagent mix as provided in Table 1.
# [5] = system: Fra-1 mRNA in H1299 cells; assay: Fra-1 mRNA levels by Q-PCR in H1299 cells after HDAC inhibitor treatment; format: cell-based, Human; details: for mrna remaining at 0.1 µM: Homo sapiens, NCI-H1299, read-out: % Fra1 mRNA remaining; for mrna remaining at 0.1 µM / % Fra1 mRNA remaining: H1299 cells
# Experimental: Human H1299 non-small cell lung carcinoma cells (ATCC, Manassas, Va.) (ATCC #CRL-5803) are cultured in RPMI 1640 medium (Life Technologies, Gaithersburg, Md.) containing 10% fetal bovine serum (FBS, Life Technologies) plus 50 μg/ml Gentamycin (Life Technologies) in a humidified incubator with a 5% CO2 atmosphere at 37° C. Prior to Tpx A treatment, H1299 cells are plated at a density of 2×10^5 cells/well in 6 well plates (Costar, Corning, N.Y.) and grown up for 24 h. Tpx A (1 mM stock solution in DMSO) is added to the cells at concentrations from 1 to 1000 nM and cells are incubated for either 24 or 48 hours at 37° C.
# as §1, §2, §3, §4, §5
# [6] = system: Fra-1 mRNA in H1299 cells; assay: Fra-1 mRNA expression by conventional microarray technology in H1299 cells; format: cell-based, Human; details: in the presence of TPX A, data not shown
# [7] = system: Fra-1 mRNA in A549 cells; assay: Fra-1 mRNA expression by conventional microarray technology in A549 cells; format: cell-based, Human; details: in the presence of TPX A, data not shown
compound,measurement,setting,value
"O=C(/C=C/c1ccc(CN(CCO)CCc2c[nH]c3ccccc23)cc1)NO [Compound B, N-Hydroxy-3-[4-[[(2-hydroxyethyl)[2-(1H-indol-3-yl)-ethyl]-amino]methyl]phenyl]-2E-2-propenamide]",mrna remaining at 0.1 µM,[1]; 16 hr,15%
same,mrna remaining at 0.1 µM,[1]; 24 hr,14.1%
same,mrna remaining at 0.1 µM,[1]; 48 hr,52.8%
same,IC50,[2],0.032 ± 0.017 µM
trapoxin A (peptide),IC50/µM on histone deacetylase (release of tritium-labelled acetyl groups from an acetylated Histone H4 peptide),[3],2.2 µM
"O=C(/C=C/c1ccc(CNCCc2c[nH]c3ccccc23)cc1)NO [Compound A, N-Hydroxy-3-[4-[[[2-(1H-indol-3-yl)-ethyl]-amino]methyl]phenyl]-2E-2-propenamide]",mrna remaining at 0.1 µM,[4]; 6 hr,32.6%
same,mrna remaining at 0.1 µM,[4]; 24 hr,15.9%
same,mrna remaining at 0.1 µM,"[5]; 100 nM drug, 6 hr (Example 2)",7.14%
same,mrna remaining at 0.1 µM,"[5]; 100 nM drug, 24 hr (Example 2)",2.07%
same,IC50,[2],0.063 ± 0.01 µM
"O=C(CCCCC[C@@H]1NC(=O)[C@H]2CCCCN2C(=O)[C@H](Cc2ccccc2)NC(=O)[C@H](Cc2ccccc2)NC1=O)C1CO1 (some centres unmarked) [TPX A, trapoxin A] (cyclo(FF[dPip][Aoe(9ξ)]))",% Fra1 mRNA remaining,[4]; 6 hr,14.25%
same,% Fra1 mRNA remaining,[4]; 24 hr,13.68%
same,IC50,"[1]; A549 cell line, Tpx A treatment, Q-PCR, read-out: IC50 for Fra-1 mRNA down regulation",0.01 to 0.05 µM
same,% Fra1 mRNA remaining,"[1]; 24 hours, 1 nM TPX A",95%
same,% Fra1 mRNA remaining,"[1]; 24 hours, 10 nM TPX A",64%
same,% Fra1 mRNA remaining,"[1]; 24 hours, 50 nM TPX A",26%
same,% Fra1 mRNA remaining,"[1]; 24 hours, 100 nM TPX A",16%
same,% Fra1 mRNA remaining,"[1]; 24 hours, 250 nM TPX A",6%
same,% Fra1 mRNA remaining,"[1]; 24 hours, 500 nM TPX A",4%
same,% Fra1 mRNA remaining,"[1]; 24 hours, 1000 nM TPX A",3%
same,% Fra1 mRNA remaining,"[1]; 48 hours, 1 nM TPX A",93%
same,% Fra1 mRNA remaining,"[1]; 48 hours, 10 nM TPX A",84%
same,% Fra1 mRNA remaining,"[1]; 48 hours, 50 nM TPX A",38%
same,% Fra1 mRNA remaining,"[1]; 48 hours, 100 nM TPX A",32%
same,% Fra1 mRNA remaining,"[1]; 48 hours, 250 nM TPX A",14%
same,% Fra1 mRNA remaining,"[1]; 48 hours, 500 nM TPX A",7%
same,% Fra1 mRNA remaining,"[1]; 48 hours, 1000 nM TPX A",6%
same,repression of Fra-1 mRNA expression (microarray),[6],> 200 fold
same,IC50,"[5]; H1299 cell line, Tpx A treatment, Q-PCR, read-out: IC50 for Fra-1 mRNA down regulation",0.001 to 0.01 µM
same,% Fra1 mRNA remaining,"[5]; 100 nM drug, 6 hr (Example 2)",5.81%
same,% Fra1 mRNA remaining,"[5]; 100 nM drug, 24 hr (Example 2)",3.11%
same,% Fra1 mRNA remaining,"[5]; 24 hours, 1 nM TPX A",98%
same,% Fra1 mRNA remaining,"[5]; 24 hours, 10 nM TPX A",2%
same,% Fra1 mRNA remaining,"[5]; 24 hours, 50 nM TPX A",1%
same,% Fra1 mRNA remaining,"[5]; 24 hours, 100 nM TPX A",1%
same,% Fra1 mRNA remaining,"[5]; 24 hours, 250 nM TPX A",1%
same,% Fra1 mRNA remaining,"[5]; 24 hours, 500 nM TPX A",1%
same,% Fra1 mRNA remaining,"[5]; 24 hours, 1000 nM TPX A",1%
same,% Fra1 mRNA remaining,"[5]; 48 hours, 1 nM TPX A",94%
same,% Fra1 mRNA remaining,"[5]; 48 hours, 10 nM TPX A",7%
same,% Fra1 mRNA remaining,"[5]; 48 hours, 50 nM TPX A",1%
same,% Fra1 mRNA remaining,"[5]; 48 hours, 100 nM TPX A",1%
same,% Fra1 mRNA remaining,"[5]; 48 hours, 250 nM TPX A",1%
same,% Fra1 mRNA remaining,"[5]; 48 hours, 500 nM TPX A",1%
same,% Fra1 mRNA remaining,"[5]; 48 hours, 1000 nM TPX A",1%
same,repression of Fra-1 mRNA expression (microarray),[7],> 200 fold
same,IC50,[2],2.2 ± 0.96 µM
